Work on `CC(CCO)C(c1cc(F)ccc1F)S(=O)(=O)c1ccc(Cl)cc1` (single isomer, unassigned) [Example 238, 4-(4-Chlorophenylsulfonyl)-4-(2,5-difluorophenyl)-3-methyl-1-butanol] yielded a melting point of 111 to 112 °C.
Work on `CCCCCCC(c1cc(F)ccc1F)S(=O)(=O)c1ccc(Cl)cc1` (centres unmarked) [Example 323, 2-[1-(4-Chlorophenylsulfonyl)heptyl]-1,4-difluorobenzene] yielded a melting point of 77 to 78 °C.
`CC1(C)COC(CCC(c2cc(F)ccc2F)S(=O)(=O)c2ccc(Cl)cc2)OC1` (centres unmarked) [Example 321, 2-[3-(4-Chlorophenylsulfonyl)-3-(2,5-difluorophenyl)propyl]-5,5-dimethyl-1,3-dioxane] showed a melting point of 69 to 71 °C.
For `O=S(=O)(c1ccc(Cl)cc1)C(Cc1ccccc1)c1cc(F)ccc1F` (centres unmarked) [Example 217, 2-[1-[(4-Chlorophenyl)sulfonyl]-2-phenylethyl]-1,4-difluorobenzene], the melting point was 160 to 161 °C.
`O=C(CC(c1cc(F)ccc1F)S(=O)(=O)c1ccc(Cl)cc1)N1CCCC1` (centres unmarked) [Example 198, 3-[(4-Chlorophenyl)sulfonyl]-3-(2,5-difluorophenyl)-1-(1-pyrrolildinyl)-1-propanone] showed a melting point of 122 to 125 °C.
For `O=C(OC(=C(c1cc(F)ccc1F)S(=O)(=O)c1ccc(Cl)cc1)c1ccccc1)c1ccccc1` [Example 9, 2-[(4-Chlorophenyl)sulfonyl]-2-(2,5-difluorophenyl)-1-phenylethenyl benzoate], the melting point was 224.5 to 227 °C.
With `O=S(=O)(c1ccc(Cl)cc1)C(Cc1ccc(F)cc1)c1cc(F)ccc1F` (centres unmarked) [Example 314, 2-[1-(4-Chlorophenylsulfonyl)-2-(4-fluorophenyl)ethyl]-1,4-difluorobenzene] the melting point was 151 to 153 °C.
`CS(=O)(=O)CCCCC(c1cnco1)S(=O)(=O)c1ccc(Cl)cc1` (centres unmarked) [Example 118, 5-[1-(4-Chlorophenylsulfonyl)-5-(methylsulfonyl)pentyl]oxazole] showed a melting point of 164 to 166 °C.
`O=S(=O)(c1ccc(Cl)cc1)C(CCCCc1ccccc1)c1cc(F)ccc1F` (centres unmarked) [Example 313, 2-[1-(4-Chlorophenylsulfonyl)-5-phenylpentyl]-1,4-difluorobenzene] gave a melting point of 88 to 90 °C.
With `O=C(CCC(c1cc(F)ccc1F)S(=O)(=O)c1ccc(Cl)cc1)N1CCCC1` (centres unmarked) [Example 201, 4-[(4-Chlorophenyl)sulfonyl]-4-(2,5-difluorophenyl)-1-(1-pyrrolildinyl)-1-butanone] the melting point was 134 to 135 °C.
`CC(C)(C)OC(=O)N1CCC(c2cc(F)ccc2F)(S(=O)(=O)c2ccc(Cl)cc2)CC1` [Example 259, t-Butyl 4-[(4-chlorophenyl)sulfonyl]-4-(2,5-difluorophenyl)-1-piperidinecarboxylate] gave a melting point of 101 to 106 °C.
With `COc1cccc(C(CCCCS(C)(=O)=O)S(=O)(=O)c2ccc(Cl)cc2)c1` (centres unmarked) [Example 83, 1-[1-(4-Chlorophenylsulfonyl)-5-(methylsulfonyl)pentyl]-3-methoxybenzene] the melting point was 91 to 93 °C.
For `CS(=O)(=O)CCCCC(c1cc(F)cc(F)c1)S(=O)(=O)c1ccc(Cl)cc1` (centres unmarked) [Example 72, 1-[1-[(4-Chlorophenyl)sulfonyl]-5-(methylsulfonyl)pentyl]-3,5-difluorobenzene], the melting point was 126 to 127 °C.
For `O=S(=O)(c1ccc(Cl)cc1)C(CCn1cccc1)c1cc(F)ccc1F` (centres unmarked) [Example 297, 1-[3-[(4-Chlorophenyl)sulfonyl]-3-(2,5-difluorophenyl)propyl]-1H-pyrrole], the melting point was 108 to 113 °C.
In the case of `CS(=O)(=O)CCCCC(c1ccccn1)S(=O)(=O)c1ccc(Cl)cc1` (centres unmarked) [Example 70, 2-[1-[(4-Chlorophenyl)sulfonyl]-5-(methylsulfonyl)pentyl]pyridine], the melting point is reported as 140 to 141 °C.
`O=S(=O)(c1ccc(Cl)cc1)C1(c2cc(F)ccc2F)CCCC1` [Example 30, 2-[1-[(4-Chlorophenyl)sulfonyl]cyclopentyl]-1,4-difluorobenzene] gave a melting point of 153 to 155 °C.
With `O=C(O)CCCC(c1cc(F)ccc1F)S(=O)(=O)c1ccc(Cl)cc1` (centres unmarked) [Example 202, 5-[(4-chlorophenyl)sulfonyl]-5-(2,5-difluorophenyl)-1-valeric Acid] the melting point was 151 to 152 °C.
In the case of `O=S(=O)(c1ccc(Cl)cc1)C(c1ccc[n+]([O-])c1)c1cc(F)ccc1F` (centres unmarked) [Example 339, 3-[(4-Chlorophenylsulfonyl)-(2,5-difluorophenyl)methyl]pyridin-N-oxide], the melting point is reported as 183 to 184 °C.
`COC(=O)CCc1ccc(C(c2cc(F)ccc2F)S(=O)(=O)c2ccc(Cl)cc2)nc1` (centres unmarked) [Example 333, Methyl 3-[6-[(4-chlorophenylsulfonyl)-(2,5-difluorophenyl)methyl]pyridin-3-yl]propionate] showed a melting point of 121 to 123 °C.
With `O=S(=O)(c1ccc(Cl)cc1)C1(c2cc(F)ccc2F)CC[S+]([O-])CC1` (centres unmarked) [Example 252, 4-[(4-Chlorophenyl)sulfonyl]-4-(2,5-difluorophenyl)tetrahydrothiopyran-1-on] the melting point was 173 to 182 °C.
`CCOC(=O)NCCC(c1cc(F)ccc1F)S(=O)(=O)c1ccc(Cl)cc1` (centres unmarked) [Example 222, Ethyl N-[3-[(4-chlorophenyl)sulfonyl]-3-(2,5-difluorophenyl)propyl]carbamate] gave a melting point of 121 to 122 °C.
With `CN(C)CC(=O)N1CCC(c2cc(F)ccc2F)(S(=O)(=O)c2ccc(Cl)cc2)CC1` [Example 271, 1-[4-[(4-Chlorophenyl)sulfonyl]-4-(2,5-difluorophenyl)piperidino]-2-(dimethylamino)-1-ethanone] the melting point was 88 to 92 °C.
`O=C(OCCC(c1cc(F)ccc1F)S(=O)(=O)c1ccc(Cl)cc1)N1CCN(c2ccccc2)CC1` (centres unmarked) [Example 212, 3-[(4-Chlorophenyl)sulfonyl]-3-(2,5-difluorophenyl)propyl=4-phenyl1-piperazinecarboxylate] gave a melting point of 127 to 129 °C.
`O=C(O)CCCCCC(c1cc(F)ccc1F)S(=O)(=O)c1ccc(Cl)cc1` (centres unmarked) [Example 205, 7-[(4-Chlorophenyl)sulfonyl]-7-(2,5-difluorophenyl)heptanoic Acid] gave a melting point of 72 to 76 °C.
For `CCNC(=O)N1CCC(c2cc(F)ccc2F)(S(=O)(=O)c2ccc(Cl)cc2)CC1` [Example 272, N-ethyl-4-[(4-chlorophenyl)sulfonyl]-4-(2,5-difluorophenyl)-1-piperidinecarboxamide], the melting point was 172 to 174 °C.
For `O=S(=O)(c1ccc(Cl)cc1)C(c1cc[n+]([O-])cc1)c1cc(F)ccc1F` (centres unmarked) [Example 340, 4-[(4-Chlorophenylsulfonyl)-(2,5-difluorophenyl)methyl]pyridin-N-oxide], the melting point was 211 to 212 °C.
For `O=S(=O)(c1ccc(Cl)cc1)C(Cc1ccco1)c1cc(F)ccc1F` (centres unmarked) [Example 296, 2-[2-[(4-Chlorophenyl)sulfonyl]-2-(2,5-difluorophenyl)ethyl]furan], the melting point was 90 to 93 °C.
In the case of `Fc1ccc(F)c(C(Sc2ccc(Cl)cc2)c2cc(Cl)ncc2Cl)c1` (centres unmarked) [Example 342, 2,5-Dichloro-4-[(4-chlorophenylthio)-(2,5-difluorophenyl)methyl]pyridine], the melting point is reported as 128 to 129 °C.
`CCCCCCCC(c1cc(F)ccc1F)S(=O)(=O)c1ccc(Cl)cc1` (centres unmarked) [Example 324, 2-[1-(4-chlorophenylsulfonyl)octyl]-1,4-difluorobenzene] showed a melting point of 47 to 48 °C.
Work on `CS(=O)(=O)CCCCC(c1ccc(Cl)c(Cl)c1)S(=O)(=O)c1ccc(Cl)cc1` (centres unmarked) [Example 69, 1,2-Dichloro-4-[1-[(4-chlorophenyl)sulfonyl]-5-(methylsulfonyl)pentyl]benzene] yielded a melting point of 143 to 144 °C.
With `O=C(NCCCC(c1cc(F)ccc1F)S(=O)(=O)c1ccc(Cl)cc1)OCCI` (centres unmarked) [Example 224, 2-Iodoethyl N-[4-[(4-chlorophenyl)sulfonyl]-4-(2,5-difluorophenyl)butyl]carbamate] the melting point was 100 to 101 °C.
`CS(=O)(=O)NCCCCC(c1cc(F)ccc1F)S(=O)(=O)c1ccc(Cl)cc1` (centres unmarked) [Example 242, N-[5-[(4-Chlorophenyl)sulfonyl]-5-(2,5-difluorophenyl)pentyl]methanesulfonamide] showed a melting point of 106 to 107 °C.
For `CS(=O)(=O)CCCCC(C1CCCCC1)S(=O)(=O)c1ccc(Cl)cc1` (centres unmarked) [Example 95, 1-Chloro-4-[1-cyclohexyl-5-(methylsulfonyl)pentylsulfonyl]benzene], the melting point was 104 to 106 °C.
For `COc1ccc(-n2ccnc2C(c2cc(F)ccc2F)S(=O)(=O)c2ccc(Cl)cc2)cc1` (centres unmarked) [Example 153, 2-[[(4-Chlorophenyl)sulfonyl]-(2,5-difluorophenyl)methyl]-1-(4-methoxyphenyl)-1H-imidazole], the melting point was 150 to 151 °C.
In the case of `COC(=O)/C=C/c1ccc(C(c2cc(F)ccc2F)S(=O)(=O)c2ccc(Cl)cc2)nc1` (centres unmarked) [Example 332, Methyl 3-[6-[(4-chlorophenylsulfonyl)-(2,5-difluorophenyl)methyl]pyridin-3-yl]acrylate], the melting point is reported as 145 to 146 °C.
`O=S1(=O)CCC(c2cc(F)ccc2F)(S(=O)(=O)c2ccc(Cl)cc2)CC1` [Example 253, 4-[(4-Chlorophenyl)sulfonyl]-4-(2,5-difluorophenyl)tetrahydrothiopyran-1,1-dioxide] showed a melting point of 204 to 206 °C.
`O=S(=O)(c1ccc(Cl)cc1)C(Cc1cccs1)c1cc(F)ccc1F` (centres unmarked) [Example 295, 2-[2-[(4-Chlorophenyl)sulfonyl]-2-(2,5-difluorophenyl)ethyl]thiophene] gave a melting point of 127 to 130 °C.
`O=C(c1ccccc1)C(c1cc(F)ccc1F)S(=O)(=O)c1ccc(Cl)cc1` (centres unmarked) [Example 8, 2-[(4-Chlorophenyl)sulfonyl]-2-(2,5-difluorophenyl)-1-phenyl-1-ethanone] showed a melting point of 179.5 to 180 °C.
In the case of `CN(C)S(=O)(=O)NCc1ccc(C(c2cc(F)ccc2F)S(=O)(=O)c2ccc(Cl)cc2)nc1` (centres unmarked) [Example 356, N-[[6-[(4-Chlorophenylsulfonyl)(2,5-difluorophenyl)methyl]pyridin-3-yl]methyl]-N′,N′-dimethylsulfamide], the melting point is reported as 177 to 178 °C.
`O=S(=O)(c1ccc(Cl)cc1)C(Cc1ccncc1)c1cc(F)ccc1F` (centres unmarked) [Example 220, 4-[2-[(4-Chlorophenyl)sulfonyl]-2-(2,5-difluorophenyl)ethyl]pyridine] gave a melting point of 129 °C.
`Cl.O=C(NCCCC(c1cc(F)ccc1F)S(=O)(=O)c1ccc(Cl)cc1)c1cccnc1` (centres unmarked) gave a melting point of 154 to 157 °C.

Source: patent US7399775B2, “β-amyloid protein production/secretion inhibitor” (Daiichi Pharmaceutical Co., Ltd., priority 2001, dated 2008)
